Series [1] concerns healthy subjects. The experiment in a line: Example 3 clinical study: subjective drug effects (VAS, 5D-ASC), ketanserin or placebo 1 hour after LSD. As to conditions: for duration of action of LSD: three subjects. Here is the method: (§1) Study design: The study used a double-blind, placebo-controlled, random-order 2-period cross-over design with 2 treatment conditions: 1) 100 μg LSD+ketanserin (40 mg) and 2) 100 μg LSD+placebo. Ketanserin or placebo was administered 1 hour after LSD. The washout periods between sessions were at least 10 days. The study was registered at ClinicalTrials.gov (NCT04558294).
(§2) Participants: Healthy subjects (men and women) were recruited. Participants who were younger than 25 years old were excluded from participating in the study. Additional exclusion criteria were age >65 years, pregnancy (urine pregnancy test at screening and before each test session), personal or family (first-degree relative) history of major psychiatric disorders (assessed by the Semi-structured Clinical Interview for Diagnostic and Statistical Manual of Mental Disorders, 4th edition, Axis I disorders by a trained psychiatrist), the use of medications that may interfere with the study medications (e.g. antidepressants, antipsychotics, sedatives), chronic or acute physical illness (abnormal physical exam, electrocardiogram, or hematological and chemical blood analyses), tobacco smoking (>10 cigarettes/day), lifetime prevalence of illicit drug use >10 times (except for Δ^9-tetrahydrocannabinol), illicit drug use within the last 2 months, and illicit drug use during the study (determined by urine drug tests).
(§3) Study drugs: LSD (D-lysergic acid diethylamide base, high-performance liquid chromatography purity >99%; Lipomed AG, Arlesheim, Switzerland) was administered as an oral solution in units containing 100 μg LSD in 1 mL of 96% ethanol (Holze et al., 2019). Ketanserin was obtained as the marketed drug (KETENSIN® (Janssen)) and encapsulated with opaque capsules to ensure blinding. Ketanserin placebo consisted of identical opaque capsules filled with mannitol.
(§4) Study procedures: The study included a screening visit, two 13 hour test sessions (7:00 AM-8:00 PM), and an end-of-study visit. LSD was administered at 8:00 AM. Ketanserin (40 mg) or placebo was administered at 9:00 AM. The outcome measures were repeatedly assessed for 12 hours after LSD administration.
Subjective drug effects: Subjective effects were assessed repeatedly using visual analog scales (VASs) 0, 0.5, 1, 1.5, 2, 2.5, 3, 3.5, 4, 5, 6, 7, 8, 9, 10, 11, and 12 hours after LSD administration. The VASs were presented as 100-mm horizontal lines (0-100%), marked from “not at all” on the left to “extremely” on the right. The 5D-ASC scale (Dittrich, 1998; Studerus et al., 2010) was administered 12 hours after LSD administration to retrospectively rate alterations in waking consciousness induced by the drugs. Autonomic, adverse, and endocrine effects: Blood pressure, heart rate, and tympanic body temperature were repeatedly measured 1 hour before and 0, 0.5, 1, 1.5, 2.5, 3, 3.5, 4, 5, 6, 7, 8, 9, 10, 11, and 12 hours after LSD administration as previously described in detail (Hysek et al., 2010). Adverse effects were systematically assessed up to 12 hours after drug administration using the 66-item List of Complaints (Zerssen, 1976).

The test system of series [2] is healthy subjects. The experiment in a line: Example 3 clinical study: cardiovascular and adverse effects (List of Complaints). As to conditions: for total of reported complaints on the LC list (mean±SEM): up to 12 hours after LSD. Here is the method:
as §1, §2, §3, §4
Subjective drug effects: Subjective effects were assessed repeatedly using visual analog scales (VASs) 0, 0.5, 1, 1.5, 2, 2.5, 3, 3.5, 4, 5, 6, 7, 8, 9, 10, 11, and 12 hours after LSD administration. […] Autonomic, adverse, and endocrine effects: Blood pressure, heart rate, and tympanic body temperature were repeatedly measured 1 hour before and 0, 0.5, 1, 1.5, 2.5, 3, 3.5, 4, 5, 6, 7, 8, 9, 10, 11, and 12 hours after LSD administration as previously described in detail (Hysek et al., 2010). Adverse effects were systematically assessed up to 12 hours after drug administration using the 66-item List of Complaints (Zerssen, 1976).

The next series deals with humans. As to conditions: cited from earlier work.
Series [3] relates to healthy subjects. The experiment in a line: Example 2 clinical study: subjective drug effects (VAS, AMRS, 5D-ASC, MEQ), ketanserin before LSD. Format: in vivo, human. As to conditions: 16 subjects. Here is the method: The study was registered at ClinicalTrials.gov (NCT03321136).
100 μg LSD/100 μg LSD). […] Placebo consisted of identical opaque capsules filled with mannitol.
LSD or placebo was administered at 9:00 AM. The outcome measures were repeatedly assessed for 24 hours.
The VASs for “concentration”, and “perception of time” were bidirectional (±50%). Marked from “not at all” on the left (−50), to “normal” in the middle (0), to “extremely” on the right (+50) for concentration and “slowed” (−50) and “racing” (+50) for “perception of time”. […] Mystical experiences were assessed using the German version (Liechti et al., 2017) of the 100-item States of Consciousness Questionnaire (SOCQ) (Griffiths et al., 2006) that includes the 43-item and newer 30-item MEQ (MEQ43 (Griffiths et al., 2006) and MEQ30 (Barrett et al., 2015)). The 60-item Adjective Mood Rating Scale (AMRS) (Janke & Debus, 1978) was administered 1 hour before and 3, 6, 9, 12, and 24 hours after drug administration.
The criterion for significance was p<0.05.

For series [4], the system named is healthy subjects. In words: Example 2 clinical study: autonomic and adverse effects (blood pressure, heart rate, body temperature, List of Complaints). As to conditions: ketanserin 40 mg before 200 μg LSD.
Source text: The washout periods between sessions were at least 10 days. The study was registered at ClinicalTrials.gov (NCT03321136).
as §2, with “Participants” for “Participants: Healthy subjects (men and women) were recruited. Participants”, “tests). […]” for “tests).”
Ketanserin (40 mg) or placebo was administered at 8:00 AM. […] The outcome measures were repeatedly assessed for 24 hours.
Autonomic, adverse, and endocrine effects: Blood pressure, heart rate, and tympanic body temperature were repeatedly measured 1 hour before and 0, 0.5, 1, 1.5, 2.5, 3, 4, 5, 6, 7, 8, 9, 10, 11, 12, 14, 16, and 24 hours after drug administration as previously described in detail (Hysek et al., 2010). Adverse effects were systematically assessed 1 hour before and 12 and 24 hours after drug administration using the 66-item List of Complaints (Zerssen, 1976).
Data analysis: Peak (Emax and/or Emin) or peak change from baseline (ΔEmax) values were determined for repeated measures. The values were then analyzed using repeated-measures analysis of variance (ANOVA), with drug as within-subjects factor, followed by Tukey post hoc comparisons using Statistica 12 software (StatSoft, Tulsa, Okla., USA). […]

Series [5] is described as follows: Example 2 clinical study: plasma LSD pharmacokinetics. As to conditions: ketanserin 40 mg before 200 μg LSD, one-compartment model. Here is the method: The blood samples were immediately centrifuged, and the plasma was subsequently stored at −80° C. until analysis.
The next series addresses T1, 5HT2A receptor (Homo sapiens, UniProt P28223).
T1 construct: ketanserin (40 mg orally) 1 hour prior to the oral administration of LSD; host or cells: human subjects (in vivo, endogenous receptor)
As to conditions: cited from earlier work.

Where [6] appears, read: ketanserin 40 mg before 200 μg LSD, reduced to the level of 25 μg LSD.
The mark [7] stands for this setting: 100 μg LSD + ketanserin 40 mg 1 hour after.
Setting [8] is: ketanserin 40 mg 1 hour after 100 μg LSD.

Where two headings read alike, the source gives them in different places.

T1 sequence (P28223 whole entry): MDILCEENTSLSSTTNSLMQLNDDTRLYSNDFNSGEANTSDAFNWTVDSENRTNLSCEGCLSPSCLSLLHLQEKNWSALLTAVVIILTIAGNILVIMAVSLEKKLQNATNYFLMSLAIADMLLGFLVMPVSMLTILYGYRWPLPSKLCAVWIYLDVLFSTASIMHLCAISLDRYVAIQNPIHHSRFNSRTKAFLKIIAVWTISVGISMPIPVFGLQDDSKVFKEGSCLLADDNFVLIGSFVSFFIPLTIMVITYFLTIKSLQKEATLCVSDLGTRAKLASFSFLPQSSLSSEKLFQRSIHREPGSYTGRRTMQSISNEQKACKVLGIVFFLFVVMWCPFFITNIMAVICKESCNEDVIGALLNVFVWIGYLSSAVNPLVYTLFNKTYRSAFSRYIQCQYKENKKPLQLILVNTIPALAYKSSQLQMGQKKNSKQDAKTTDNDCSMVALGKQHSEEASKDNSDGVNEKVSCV

On to `CCN(CC)C(=O)[C@@H]1C=C2c3cccc4[nH]cc(c34)C[C@H]2N(C)C1` [LSD, Lysergic acid diethylamide], for which the “total 3D-OAV score” value in the series with healthy subjects [1] (100 μg LSD + placebo) was 34%. Also, the “duration of action of LSD” value in the series on healthy subjects [1] (100 μg LSD + placebo 1 hour after) amounted to 10 h. Further, the “total of reported complaints on the LC list (mean±SEM)” value in the series on healthy subjects [2] (100 μg LSD + placebo) is listed as 7±3.6. In addition, the “duration of subjective effects (mean±SD)” value in the series on humans (100 μg LSD, Holze et al., 2019, range: 5.3-12.8 hour) is 8.5 ± 2.0 h. Also, the “duration of LSD effects” value in the series with humans (100 μg dose, Dolder et al., 2017, range: 5-14 hours) is 8.2 ± 2.1 h; in the series with humans (200 μg dose, Dolder et al., 2017, range: 7-19.5 hours), 11.6 ± 1.7 h.
With `O=C(c1ccc(F)cc1)C1CCN(CCn2c(=O)[nH]c3ccccc3c2=O)CC1` [ketanserin], in the series on healthy subjects [3] (ketanserin 40 mg 1 hour before 200 μg LSD), the “LSD response on the AMRS” value was “significantly prevented anxiety, introversion and emotional excitation”. Further, the “overall subjective response to high-dose LSD” value in the series on healthy subjects [3] (ketanserin 40 mg 1 hour before 200 μg LSD, most P<0.001) is given as “reduced the subjective response to high-dose LSD approximately to the level of the 25 μg LSD dose”. In the series with healthy subjects [3] (setting [6]), the “subjective effects on the 5D-ASC Scale” value was “significantly and markedly reduced”; the “subjective effects on the MEQ and subscales 'Nadir' and 'Aesthetic experience' (SOCQ)” value was “significantly and markedly reduced”. The “acute adverse effects of 200 μg LSD (List of Complaints)” value in the series with healthy subjects [4] is given as “significantly prevented”. For the same compound, in the series with healthy subjects [4] (16 subjects), the “LSD response on blood pressure” value is reported as “transiently reduced the LSD response on blood pressure only up to 6 hours” and the “LSD-induced heart rate response” value is on record as “significantly prevented”. For the same compound, the “effect on the PK of 200 μg LSD” value in series [5] is “only minimally altered”. For the same compound, in the series on healthy subjects [1] (setting [7]), the “total 3D-OAV score” value is 24% and the “duration of action of LSD” value was 4 h. Also, in the series with healthy subjects [1] (setting [8]), the “set-in of the ketanserin effect on the subjective response to LSD, time after ketanserin administration” value is 1 h; the “time to blockade of the LSD-typical effects” value is “within two hours”; the “typical mind altering effects of LSD on VAS (any drug effect, good drug effect, visual, auditory, synaesthetic, sense of time, ego-dissolution)” value was “very effectively reduced”. The “reduction of the duration of action of LSD” value in the series with healthy subjects [1] (ketanserin 40 mg 1 hour after 100 μg LSD vs placebo) is listed as “approximately 60%”. For the same compound, in the series on healthy subjects [1] (ketanserin 40 mg 1 hour after 100 μg LSD, 12 hours observation), the “recurrence of the LSD effect” value was “no recurrence of the LSD effect”. In addition, in the series on healthy subjects [1] (ketanserin 40 mg 1 hour after 100 μg LSD, more data needed), the “nausea induced by LSD (VAS)” value is “tended to reduce nausea”. For the same compound, the “acute subjective psychedelic response to LSD” value with healthy subjects [1] (ketanserin 40 mg 1 hour after LSD base 100 μg) was “markedly shortened and also attenuated”. Further, in the series on healthy subjects [1] (ketanserin 40 mg added to 100 μg LSD compared with placebo), the “feelings of tiredness (VAS)” value was “increased feelings of tiredness”. The “subjective feelings of stimulation (VAS)” value with healthy subjects [1] (ketanserin 40 mg after 100 μg LSD compared with LSD alone) is listed as “increased subjective feelings of stimulation”. Besides, the “subjective effects of LSD on the 5D-ASC Scale” value in the series on healthy subjects [1] (ketanserin 40 mg after 100 μg LSD in comparison with placebo) is “reduced the subjective effects of LSD”. For the same compound, in the series with healthy subjects [1] (ketanserin 40 mg after 100 μg LSD vs placebo), the “reduction of the total 3D-OAV score” value was “approximately 30%”. Further, the “total of reported complaints on the LC list (mean±SEM)” value in the series on healthy subjects [2] (100 μg LSD + ketanserin 40 mg) was found to be 8.3±4. In addition, the “cardiovascular effects of LSD (blood pressure, heart rate, body temperature)” value in the series with healthy subjects [2] (ketanserin 40 mg 1 hour after 100 μg LSD compared with placebo) is on record as “no relevant effects on the cardiovascular effects of LSD”. Also, in the series with healthy subjects [2] (ketanserin 40 mg 1 hour after 100 μg LSD, needing further study), the diastolic blood pressure entry is “transient decrease in diastolic blood pressure”. The “effect on the LSD experience” value at 5HT2A receptor (ketanserin 40 mg orally 1 hour prior to LSD 200 μg, Liechti) is “similarly prevented the LSD experience”. Further, the “effect on the LSD experience” value on 5HT2A receptor (ketanserin 40 mg orally 1 hour prior to oral LSD 70-100 μg, Preller et al., 2017) is recorded as “prevent the LSD experience almost completely”.

The values are drawn from patent US20210267977A1, “C[…] AFTER 5HT2A AGONISTS ADMINISTRATION” (Universitätsspital Basel, priority 2020, published 2021).
